Measured values taken from PubChem BioAssay AID328 (DTP/NCI, 2004).
Several values for one entry are separate records, joined by “and”; a condition that tells them apart may be missing. Equal entries are not always repeated. Toxic doses and inconclusive results are not listed.

Tested on: BDF1 mice, P388 leukemia ip, median survival T/C
Test: NCI In Vivo Anticancer Drug Screen. Data for tumor model P388 Leukemia (intraperitoneal) in B6D2F1 (BDF1) mice
Settings: endpoint: median survival time, higher = longer survival
Method in brief: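 T/C = treated-group survival ÷ vehicle-control survival; tumour transplanted into mice before dosing.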

[1] = dose: 100.0 mg/kg/injection, schedule: Q01DX009 (ip), vehicle: saline with Tween-80
[2] = dose: 200.0 mg/kg/injection, schedule: Q01DX009 (ip), vehicle: saline with Tween-80
[3] = dose: 400.0 mg/kg/injection, schedule: Q01DX009 (ip), vehicle: saline with Tween-80
[4] = dose: 50.0 mg/kg/injection, schedule: Q04DX003 (ip), vehicle: saline with Tween-80
[5] = dose: 100.0 mg/kg/injection, schedule: Q04DX003 (ip), vehicle: saline with Tween-80
[6] = dose: 200.0 mg/kg/injection, schedule: Q04DX003 (ip), vehicle: saline with Tween-80
[7] = dose: 25.0 mg/kg/injection, schedule: Q01DX009 (ip), vehicle: Klucel (hydroxypropylcellulose) (HPC)
[8] = dose: 50.0 mg/kg/injection, schedule: Q01DX009 (ip), vehicle: Klucel (hydroxypropylcellulose) (HPC)
[9] = dose: 50.0 mg/kg/injection, schedule: Q04DX003 (ip), vehicle: Klucel (hydroxypropylcellulose) (HPC)
[10] = dose: 100.0 mg/kg/injection, schedule: Q04DX003 (ip), vehicle: Klucel (hydroxypropylcellulose) (HPC)
[11] = dose: 200.0 mg/kg/injection, schedule: Q04DX003 (ip), vehicle: Klucel (hydroxypropylcellulose) (HPC)
[12] = dose: 100.0 mg/kg/injection, schedule: Q01DX009 (ip), vehicle: Klucel (hydroxypropylcellulose) (HPC)

## Cc1ccc2c(ccc(/C=C/c3ccc(O)c4ncccc34)[n+]2C)c1
dose: 75.0 mg/kg/injection, schedule: Q01DX009 (ip), vehicle: Klucel (hydroxypropylcellulose) (HPC)
  T/C: 104 % of control

## Cc1nc2ccccc2c(=O)n1-c1nccs1
dose: 50.0 mg/kg/injection, schedule: Q01DX005 (ip), vehicle: saline with Tween-80
  T/C: 102 % of control
dose: 100.0 mg/kg/injection, schedule: Q01DX005 (ip), vehicle: saline with Tween-80
  T/C: 107 % of control
dose: 200.0 mg/kg/injection, schedule: Q01DX005 (ip), vehicle: saline with Tween-80
  T/C: 102 % of control

## COc1cc2c(c(OC)c1OC)-c1ccc(OC)c(=O)cc1[C@@H](NC(C)=O)CC2
dose: 0.04 mg/kg/injection, schedule: Q01DX010 (ip), vehicle: saline
  T/C: 122 % of control
dose: 0.13 mg/kg/injection, schedule: Q01DX009 (ip), vehicle: water
  T/C: 171 % of control
dose: 0.16 mg/kg/injection, schedule: Q01DX010 (ip), vehicle: saline
  T/C: 181 % of control
dose: 0.25 mg/kg/injection, schedule: Q01DX009 (ip), vehicle: water
  T/C: 173 % of control
dose: 0.32 mg/kg/injection, schedule: Q01DX010 (ip), vehicle: saline
  T/C: 154 % of control and 181 % of control
dose: 0.64 mg/kg/injection, schedule: Q01DX010 (ip), vehicle: saline
  T/C: 163 % of control
dose: 250.0 micrograms/kg/injection, schedule: Q01DX009 (ip), vehicle: saline
  T/C: 153 % of control
dose: 500.0 micrograms/kg/injection, schedule: Q01DX009 (ip), vehicle: saline
  T/C: 235 % of control
dose: 1000.0 micrograms/kg/injection, schedule: Q01DX009 (ip), vehicle: saline
  T/C: 222 % of control

## C=CCc1ccc(OCCOC(=O)Nc2cccc(SC)c2)c(OC)c1
dose: 12.5 mg/kg/injection, schedule: Q01DX009 (ip), vehicle: DMSO
  T/C: 90 % of control
dose: 25.0 mg/kg/injection, schedule: Q01DX009 (ip), vehicle: DMSO
  T/C: 107 % of control
dose: 50.0 mg/kg/injection, schedule: Q01DX009 (ip), vehicle: DMSO
  T/C: 93 % of control

## CCCC(C#N)(CCCl)c1ccccc1 (centres undefined)
[1]
  T/C: 100 % of control
[2]
  T/C: 108 % of control
[3]
  T/C: 112 % of control

## COC(=O)C(Sc1ccc(Cl)cc1)C1SC(=S)N(C)C1=O (centres undefined)
[1]
  T/C: 118 % of control
[2]
  T/C: 92 % of control

## c1ccc(CCN2CCC(CCc3c[nH]c4ccccc34)CC2)cc1
dose: 12.5 mg/kg/injection, schedule: Q01DX010 (ip), vehicle: saline
  T/C: 100 % of control
dose: 25.0 mg/kg/injection, schedule: Q01DX010 (ip), vehicle: saline
  T/C: 109 % of control
dose: 50.0 mg/kg/injection, schedule: Q01DX010 (ip), vehicle: saline
  T/C: 122 % of control
dose: 100.0 mg/kg/injection, schedule: Q01DX010 (ip), vehicle: saline
  T/C: 114 % of control

## CN1CCC(OC(=O)c2ccc3c(c2)OCO3)CC1
dose: 12.5 mg/kg/injection, schedule: Q04DX003 (ip), vehicle: saline with Tween-80
  T/C: 100 % of control
dose: 25.0 mg/kg/injection, schedule: Q04DX003 (ip), vehicle: saline with Tween-80
  T/C: 117 % of control
[4]
  T/C: 91 % of control

## COC(=O)CCc1ccc(NP(=O)(N2CC2)N2CC2)cc1
dose: 66.0 mg/kg/injection, schedule: Q01DX009 (ip), vehicle: saline with Tween-80
  T/C: 177 % of control
dose: 300.0 mg/kg/injection, schedule: Q04DX003 (ip), vehicle: saline with Tween-80
  T/C: 154 % of control

## Nc1ccccc1-n1nc2ccc3ccccc3c2n1
[1]
  T/C: 105 % of control
dose: 132.0 mg/kg/injection, schedule: Q01DX009 (ip), vehicle: saline with Tween-80
  T/C: 90 % of control
[2]
  T/C: 100 % of control
dose: 300.0 mg/kg/injection, schedule: Q01DX009 (ip), vehicle: saline with Tween-80
  T/C: 95 % of control
[3]
  T/C: 105 % of control

## C=CCOC(=O)c1ccccc1N
[1]
  T/C: 118 % of control
[5]
  T/C: 110 % of control
[2]
  T/C: 118 % of control
[6]
  T/C: 115 % of control
dose: 400.0 mg/kg/injection, schedule: Q04DX003 (ip), vehicle: saline with Tween-80
  T/C: 110 % of control

## CC(O)CN1CC(C)N(CC(C)O)CC1C (centres undefined)
dose: 12.5 mg/kg/injection, schedule: Q04DX003 (ip), vehicle: saline
  T/C: 104 % of control
dose: 25.0 mg/kg/injection, schedule: Q04DX003 (ip), vehicle: saline
  T/C: 100 % of control
dose: 50.0 mg/kg/injection, schedule: Q04DX003 (ip), vehicle: saline
  T/C: 100 % of control

## O=C(NC(=O)c1c(F)cccc1F)Nc1ncc(Cl)cc1Cl
dose: 50.0 mg/kg/injection, schedule: Q01DX009 (ip), vehicle: saline with Tween-80
  T/C: 90 % of control
[1]
  T/C: 100 % of control
[2]
  T/C: 90 % of control

## CCN(CC)Cc1c(O)ccc2c3c(c(=O)oc12)CCCC3
dose: 1.0 mg/kg/injection, schedule: Q01DX005 (ip), vehicle: saline
  T/C: 112 % of control
dose: 2.0 mg/kg/injection, schedule: Q01DX005 (ip), vehicle: saline
  T/C: 106 % of control
dose: 4.0 mg/kg/injection, schedule: Q01DX005 (ip), vehicle: saline
  T/C: 112 % of control
dose: 8.0 mg/kg/injection, schedule: Q01DX005 (ip), vehicle: saline
  T/C: 104 % of control
dose: 16.0 mg/kg/injection, schedule: Q01DX005 (ip), vehicle: saline
  T/C: 98 % of control
dose: 32.0 mg/kg/injection, schedule: Q01DX005 (ip), vehicle: saline
  T/C: 102 % of control
dose: 64.0 mg/kg/injection, schedule: Q01DX005 (ip), vehicle: saline
  T/C: 96 % of control

## COc1cccc2c1C(=O)c1c(O)c3c(c(O)c1C2=O)CC(O)(/C(C)=N/Nc1ccc(Cl)cc1)CC3OC1CC(N)C(O)C(C)O1 (centres undefined)
dose: 4.08 mg/kg/injection, schedule: Q04DX003 (ip), vehicle: water
  T/C: 158 % of control
dose: 6.8 mg/kg/injection, schedule: Q04DX003 (ip), vehicle: water
  T/C: 157 % of control

## O=Cc1cc([N+](=O)[O-])ccc1Cl
[4]
  T/C: 100 % of control
[5]
  T/C: 96 % of control
[6]
  T/C: 100 % of control

## Fc1ccc(P(c2ccc(F)cc2)c2ccc(F)cc2)cc1
dose: 3.12 mg/kg/injection, schedule: Q01DX009 (ip), vehicle: Klucel (hydroxypropylcellulose) (HPC)
  T/C: 92 % of control
dose: 6.25 mg/kg/injection, schedule: Q01DX009 (ip), vehicle: Klucel (hydroxypropylcellulose) (HPC)
  T/C: 92 % of control
dose: 12.5 mg/kg/injection, schedule: Q01DX009 (ip), vehicle: Klucel (hydroxypropylcellulose) (HPC)
  T/C: 107 % of control
[7]
  T/C: 100 % of control
[8]
  T/C: 96 % of control
[9]
  T/C: 100 % of control
[10]
  T/C: 87 % of control
[11]
  T/C: 95 % of control

## Cc1ccn(C)c(=O)c1
dose: 25.0 mg/kg/injection, schedule: Q01DX009 (ip), vehicle: saline
  T/C: 86 % of control
dose: 50.0 mg/kg/injection, schedule: Q01DX009 (ip), vehicle: saline
  T/C: 86 % of control
dose: 100.0 mg/kg/injection, schedule: Q01DX009 (ip), vehicle: saline
  T/C: 86 % of control and 100 % of control
dose: 200.0 mg/kg/injection, schedule: Q01DX009 (ip), vehicle: saline
  T/C: 105 % of control

## CCOC(=O)c1cc(/C=C/c2ccccc2)[nH]c(=O)c1C#N
[7]
  T/C: 91 % of control
[8]
  T/C: 91 % of control
[12]
  T/C: 95 % of control
[10]
  T/C: 95 % of control
dose: 200.0 mg/kg/injection, schedule: Q01DX009 (ip), vehicle: Klucel (hydroxypropylcellulose) (HPC)
  T/C: 92 % of control
[11]
  T/C: 104 % of control
dose: 400.0 mg/kg/injection, schedule: Q04DX003 (ip), vehicle: Klucel (hydroxypropylcellulose) (HPC)
  T/C: 104 % of control

## O=C(CCl)c1ccc[nH]1
dose: 25.0 mg/kg/injection, schedule: Q04DX003 (ip), vehicle: Klucel (hydroxypropylcellulose) (HPC)
  T/C: 95 % of control
[9]
  T/C: 91 % of control

## O=S1(=O)OCc2ccccc21
[8]
  T/C: 108 % of control
[9]
  T/C: 86 % of control
[12]
  T/C: 91 % of control
[10]
  T/C: 100 % of control and 104 % of control
[11]
  T/C: 92 % of control and 95 % of control
